Results reported in paper PMC6270359, “Cholinesterase Enzymes Inhibitors from the Leaves of Rauvolfia Reflexa and Their Molecular Docking Study” (Molecules, 2013).
Values joined by “and” are separate entries in the source; they are usually repeats but may differ in a detail not shown here. Equal values may be shown once. Read-outs that look alike come from different tables or passages of the source.

Assays:
[1] = target: T1, acetylcholinesterase from electric eel (AChE) (Electrophorus electricus, UniProt O42275); assay: Acetylcholinesterase inhibitory assay (Ellman's microplate assay); type: biochemical; conditions: for IC50: Mean ± SD (n = 3)
T1 construct: purchased Sigma Chemicals (St. Louis, MO, USA)
T1 sequence (O42275 24-633): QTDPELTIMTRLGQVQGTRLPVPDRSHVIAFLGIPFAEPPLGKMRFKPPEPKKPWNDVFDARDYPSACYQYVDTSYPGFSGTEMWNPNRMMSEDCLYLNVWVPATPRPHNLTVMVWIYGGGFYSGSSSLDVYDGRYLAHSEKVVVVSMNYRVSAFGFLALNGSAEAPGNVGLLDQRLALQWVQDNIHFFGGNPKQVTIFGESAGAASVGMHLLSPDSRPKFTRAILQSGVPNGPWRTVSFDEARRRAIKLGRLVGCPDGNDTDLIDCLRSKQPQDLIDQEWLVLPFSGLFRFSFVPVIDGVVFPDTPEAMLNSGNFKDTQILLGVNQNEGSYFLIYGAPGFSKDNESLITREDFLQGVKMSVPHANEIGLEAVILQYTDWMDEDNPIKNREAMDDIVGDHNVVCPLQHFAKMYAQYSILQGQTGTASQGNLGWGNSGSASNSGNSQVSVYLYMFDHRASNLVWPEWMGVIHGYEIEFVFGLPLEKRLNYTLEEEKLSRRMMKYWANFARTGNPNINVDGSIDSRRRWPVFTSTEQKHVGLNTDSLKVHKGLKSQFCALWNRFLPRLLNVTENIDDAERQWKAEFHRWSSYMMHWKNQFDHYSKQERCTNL
Description: (§1) Acetylthiocholine iodide (ATCl), acetylcholinesterase from electric eel (AChE), 5,5'-dithiobis[2-nitrobenzoic acid] […] All the other reagents used were of analytical grade.
(§2) Cholinesterase enzymes inhibitory potential of test samples was evaluated using Ellman’s microplate assay following the method described by Ahmed and Gilani with slight modifications. […] The concentration of DMSO in final reaction mixture was 1%.
(§3) For acetylcholinesterase (AChE) inhibitory assay, 140 μL of 0.1 M sodium phosphate buffer (pH 8) was first added to a 96-wells microplate followed by 20 μL of test samples and 20 μL of 0.09 units/mL acetylcholinesterase enzyme. After 15 min of pre-incubation at 25 °C, 10 μL of 10 mM 5,5'-dithiobis (2-nitrobenzoic acid) was added into each well, followed by 10 μL of 14 mM acetylthiocholine iodide. After the initiation of enzymatic reaction, absorbance of the coloured end-product was measured for 15 min using Tecan Infinite 200 Pro Microplate Spectrophotometer (Männedorf, Switzerland) at 417 nm.
(§4) For butyrylcholinesterase (BChE) inhibitory assay, the same procedures as described above were followed except for the use of enzyme and substrate, which were BChE from equine serum and S-butyrylthiocholine chloride, respectively. Each test was conducted in triplicate. Absorbencies of the test samples were corrected by subtracting the absorbance of their respective blank. […] Percentage inhibition was calculated using the following formula: Percentage inhibition (%) = Absorbance of control - Absorbance of test sample/Absorbance of control×100%

[2] = target: T2, butyrylcholinesterase from equine serum (BChE) (Equus caballus, UniProt P81908); assay: Butyrylcholinesterase inhibitory assay (Ellman's microplate assay); type: biochemical
T2 construct: purchased Sigma Chemicals (St. Louis, MO, USA); host or cells: equine serum
T2 sequence (P81908 whole entry): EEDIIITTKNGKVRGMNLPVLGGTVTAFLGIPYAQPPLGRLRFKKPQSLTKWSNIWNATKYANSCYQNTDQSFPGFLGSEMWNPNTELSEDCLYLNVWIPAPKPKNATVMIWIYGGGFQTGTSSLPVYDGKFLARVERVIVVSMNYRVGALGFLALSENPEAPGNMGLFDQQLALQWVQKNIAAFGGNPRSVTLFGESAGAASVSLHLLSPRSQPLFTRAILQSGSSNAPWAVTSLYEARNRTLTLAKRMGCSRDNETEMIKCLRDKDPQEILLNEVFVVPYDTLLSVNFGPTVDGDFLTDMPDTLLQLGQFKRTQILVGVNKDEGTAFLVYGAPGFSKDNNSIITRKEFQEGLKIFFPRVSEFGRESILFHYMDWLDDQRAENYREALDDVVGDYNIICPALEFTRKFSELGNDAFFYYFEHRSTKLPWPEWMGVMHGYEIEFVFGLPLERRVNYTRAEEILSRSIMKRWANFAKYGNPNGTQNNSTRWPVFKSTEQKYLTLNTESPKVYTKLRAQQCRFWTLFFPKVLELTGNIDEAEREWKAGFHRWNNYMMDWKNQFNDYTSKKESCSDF
Description: as §1, §2, §3, §4

[3] = isolated chemical constituents at 10 μg/mL, initial screening
[4] = chemical constituents, read-out: AChE inhibition, IC50 (converted)

| SMILES | IC50 ([1]; AChE inhibition, IC50, chemical constituents) | AChE inhibition [1, 3] | IC50 ([1]; read-out: AChE inhibition, IC50, chemical constituents) | Selectivity for BChE ([2]; chemical constituents, IC50(AChE)/IC50(BChE)) | IC50 ([2]; chemical constituents, Mean ± SD (n = 3), read-out: BChE inhibition, IC50 (converted)) | inhibition at 10 µg/mL [2, 3] | Selectivity for AChE ([1]; chemical constituents, IC50(BChE)/IC50(AChE)) | IC50 [1, 4] | inhibition at 10 µg/mL [1, 3] |
| --- | --- | --- | --- | --- | --- | --- | --- | --- | --- |
| COc1cc(/C=C/C(=O)O)cc(OC)c1OC [Compound 1, (E)-3-(3,4,5-Trimethoxyphenyl) acrylic acid] | 60.1 µM | much lower inhibition | 60.2 ± 14.4 µM |  |  |  |  |  |  |
| COC(=O)/C=C/c1cc(OC)c(O)c(OC)c1 [Compound 2, (E)-methyl 3-(4-hydroxy-3,5-dimethoxyphenyl) acrylate] |  |  |  | 2.56 | 61.7 µM | 91.3% | 0.39 | 158 µM | 40.4% |
| O=C1NCCc2c1[nH]c1ccccc21 [Compound 4, 1,2,3,4-Tetrahydro-1-oxo-β-carboline] |  |  |  |  |  |  |  | 83.3 µM and 83.4 µM | 41.3% |
